In BindingDB's records for PubMed 36473699 (Cnrs, 2022):

Test: Inhibition of Mycobacterium smegmatis MC2 155 recombinant type II NADH dehydrogenase ndh expressed in Escherichia coli assessed as rate of NADH oxidation in the presence of an electron acceptor menadione

Row | Compound | IC50
1 | CC(C)[C@H]1CO[C@]23CCN(Cc4ccc(Cl)cc4)C[C@H]2CCC(=O)N13 | 42 nM
2 | COc1ccc(CN2CC[C@]34OC[C@H](C(C)C)N3C(=O)CC[C@@H]4C2)cc1 | 890 nM
3 | CC(C)[C@H]1CO[C@]23CCN(Cc4ccc(C(F)(F)F)nc4)C[C@H]2CCC(=O)N13 | 88 nM
